pIC50, pKd: −log10 of the molar value.
Tests used:
[1] = target: T1, Tyrosine-protein phosphatase non-receptor type 11 (Homo sapiens, UniProt Q06124); assay: Inhibition of recombinant SHP2
T1 sequence (Q06124 whole entry): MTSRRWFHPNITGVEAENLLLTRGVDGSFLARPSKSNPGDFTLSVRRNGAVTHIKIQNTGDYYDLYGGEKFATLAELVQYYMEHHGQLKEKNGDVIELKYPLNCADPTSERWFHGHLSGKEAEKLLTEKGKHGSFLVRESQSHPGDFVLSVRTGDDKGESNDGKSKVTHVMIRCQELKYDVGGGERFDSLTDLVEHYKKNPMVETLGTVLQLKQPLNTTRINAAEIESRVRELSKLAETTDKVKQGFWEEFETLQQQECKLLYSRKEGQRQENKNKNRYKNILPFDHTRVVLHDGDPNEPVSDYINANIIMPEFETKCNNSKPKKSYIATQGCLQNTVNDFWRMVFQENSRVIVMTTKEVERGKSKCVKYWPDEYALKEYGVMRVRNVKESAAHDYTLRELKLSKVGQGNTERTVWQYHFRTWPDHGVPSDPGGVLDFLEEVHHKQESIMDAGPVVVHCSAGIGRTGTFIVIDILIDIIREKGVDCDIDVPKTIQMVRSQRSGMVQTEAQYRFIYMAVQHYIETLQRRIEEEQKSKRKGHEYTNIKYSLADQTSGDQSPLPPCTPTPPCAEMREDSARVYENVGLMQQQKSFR

[2] = target: Tyrosine-protein phosphatase non-receptor type 6 (Homo sapiens, UniProt P29350); assay: Inhibition of recombinant SHP1
[3] = target: T2, Tyrosine-protein phosphatase non-receptor type 1 (Homo sapiens, UniProt P18031); assay: Inhibition of recombinant PTP1B
T2 sequence (P18031 whole entry): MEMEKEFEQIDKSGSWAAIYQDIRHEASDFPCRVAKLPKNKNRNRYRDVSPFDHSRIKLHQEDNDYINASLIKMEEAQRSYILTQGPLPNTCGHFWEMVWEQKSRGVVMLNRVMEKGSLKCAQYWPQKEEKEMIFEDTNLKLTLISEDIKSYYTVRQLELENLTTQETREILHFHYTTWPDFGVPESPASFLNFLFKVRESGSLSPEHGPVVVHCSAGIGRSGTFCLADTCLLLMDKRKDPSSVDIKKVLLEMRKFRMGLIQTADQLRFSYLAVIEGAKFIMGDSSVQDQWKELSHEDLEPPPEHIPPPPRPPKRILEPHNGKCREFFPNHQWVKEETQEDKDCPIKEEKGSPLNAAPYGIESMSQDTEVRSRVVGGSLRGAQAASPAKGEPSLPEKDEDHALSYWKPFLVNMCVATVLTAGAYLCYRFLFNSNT

[4] = target: T3, Tyrosine-protein phosphatase non-receptor type 7 (Homo sapiens, UniProt P35236); assay: Inhibition of recombinant HePTP
T3 sequence (P35236 whole entry): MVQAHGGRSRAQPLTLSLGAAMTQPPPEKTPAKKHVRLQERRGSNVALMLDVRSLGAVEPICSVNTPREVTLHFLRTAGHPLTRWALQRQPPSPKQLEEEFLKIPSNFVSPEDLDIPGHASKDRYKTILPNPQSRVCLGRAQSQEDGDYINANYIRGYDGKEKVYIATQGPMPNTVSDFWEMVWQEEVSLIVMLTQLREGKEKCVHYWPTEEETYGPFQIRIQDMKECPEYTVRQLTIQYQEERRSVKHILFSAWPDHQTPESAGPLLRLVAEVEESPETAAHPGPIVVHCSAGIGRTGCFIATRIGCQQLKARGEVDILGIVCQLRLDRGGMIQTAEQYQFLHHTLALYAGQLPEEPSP

[5] = target: T1, Tyrosine-protein phosphatase non-receptor type 11; assay: Binding affinity to recombinant SHP2 by surface plasmon […]
[6] = target: T4, Tyrosine-protein phosphatase non-receptor type 11 (Homo sapiens) (UniProt Q06124)
T4 sequence (whole entry): T1 sequence (Q06124 whole entry)
Description: Mixed inhibition of recombinant SHP2 at enzyme-substrate complex by Lineweaver-Burk plot analysis

[7] = target: T4, Tyrosine-protein phosphatase non-receptor type 11 (Homo sapiens); remark: listed apart in the source
Description: Mixed inhibition of recombinant SHP2 by Lineweaver-Burk plot analysis

Sequence of Tyrosine-protein phosphatase non-receptor type 6 (P29350 whole entry): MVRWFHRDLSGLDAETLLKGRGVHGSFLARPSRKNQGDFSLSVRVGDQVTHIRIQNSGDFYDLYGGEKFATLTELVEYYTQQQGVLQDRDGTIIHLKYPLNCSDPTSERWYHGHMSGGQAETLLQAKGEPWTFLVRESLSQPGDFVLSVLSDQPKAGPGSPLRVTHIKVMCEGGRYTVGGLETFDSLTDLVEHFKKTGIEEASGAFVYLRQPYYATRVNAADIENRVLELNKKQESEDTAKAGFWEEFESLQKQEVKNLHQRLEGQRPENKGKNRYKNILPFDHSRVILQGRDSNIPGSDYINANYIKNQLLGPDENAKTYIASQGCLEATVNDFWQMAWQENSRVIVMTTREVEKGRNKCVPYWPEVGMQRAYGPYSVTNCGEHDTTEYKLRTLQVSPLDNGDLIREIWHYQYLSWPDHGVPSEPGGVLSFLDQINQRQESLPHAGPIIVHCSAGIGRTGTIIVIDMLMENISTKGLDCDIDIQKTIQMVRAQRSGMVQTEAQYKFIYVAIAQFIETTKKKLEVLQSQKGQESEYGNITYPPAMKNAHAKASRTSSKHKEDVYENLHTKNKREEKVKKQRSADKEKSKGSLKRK

| Compound | pIC50 [1] | pIC50 [2] | pIC50 [3] | pIC50 [4] | pKd [5] | Kis [6] [µM] | Kii [7] [µM] |
| --- | --- | --- | --- | --- | --- | --- | --- |
| COc1ccc2c(c1)CC[C@@H]1[C@@H]2CC[C@@]2(C)[C@H]1CC[C@@]21CCNP(=O)(N(CCCl)CCCl)O1 (some centres not stated) | < 3.52 | – | – | – | – | – | – |
| CC1=C(O)C(=O)C=C2C1=CC=C1[C@@]2(C)CC[C@@]2(C)[C@@H]3C[C@](C)(C(=O)O)CC[C@]3(C)CC[C@]12C [CELASTROL] | 5.48 | 4.56 | 4.88 | 4.12 | – | – | – |
| CC1(C)[C@@H](O)CC[C@]2(C)[C@H]3C(=O)C=C4[C@@H]5C[C@@](C)(C(=O)O)CC[C@]5(C)CC[C@@]4(C)[C@]3(C)CC[C@@H]12 [ENOXOLONE] | 5.02 | 4.18 | – | < 3.52 | – | – | – |
| C[C@]12CC[C@@H]3c4ccc(O)cc4CC[C@H]3[C@@H]1CC[C@@H]2OP(=O)(O)O [ESTRADIOL PHOSPHATE] | 4.70 | < 3.52 | < 3.52 | < 3.52 | – | – | – |
| C[C@]12CC[C@@H]3c4ccc(O)cc4CC[C@H]3[C@@H]1CC[C@@H]2O [ESTRADIOL] | < 3.52 | – | – | – | – | – | – |
| C[C@]12CC[C@@H]3c4ccc(OC(=O)N(CCCl)CCCl)cc4CC[C@H]3[C@@H]1CC[C@@H]2OP(=O)(O)O [ESTRAMUSTINE PHOSPHATE] | 4.77 | 4.39 | 4.20 | 3.82 | 5.08 | 22.8 | 10.8 |
| C[C@]12CC[C@@H]3c4ccc(OC(=O)N(CCCl)CCCl)cc4CC[C@H]3[C@@H]1CC[C@@H]2O [ESTRAMUSTINE] | < 3.52 | – | – | – | – | – | – |
| CC1=C(O)C(=O)C=C2C1=CC=C1[C@@]2(C)CC[C@@]2(C)[C@@H]3C[C@@H](C)C(=O)C[C@]3(C)CC[C@]12C [TINGENONE] | 4.21 | – | – | – | – | – | – |

— ChEMBL document CHEMBL1641477, “Shp2 protein tyrosine phosphatase inhibitor activity of estramustine phosphate and its triterpenoid analogs” (Bioorg Med Chem Lett, 2011)
